From ChEMBL document CHEMBL3608293, “Novel Pyrazine Amide Compounds” (ACS Med Chem Lett, 2015)

Target: T1, Epithelial sodium channel subunit alpha (Mus musculus, UniProt Q61180)
T1 sequence (Q61180 whole entry): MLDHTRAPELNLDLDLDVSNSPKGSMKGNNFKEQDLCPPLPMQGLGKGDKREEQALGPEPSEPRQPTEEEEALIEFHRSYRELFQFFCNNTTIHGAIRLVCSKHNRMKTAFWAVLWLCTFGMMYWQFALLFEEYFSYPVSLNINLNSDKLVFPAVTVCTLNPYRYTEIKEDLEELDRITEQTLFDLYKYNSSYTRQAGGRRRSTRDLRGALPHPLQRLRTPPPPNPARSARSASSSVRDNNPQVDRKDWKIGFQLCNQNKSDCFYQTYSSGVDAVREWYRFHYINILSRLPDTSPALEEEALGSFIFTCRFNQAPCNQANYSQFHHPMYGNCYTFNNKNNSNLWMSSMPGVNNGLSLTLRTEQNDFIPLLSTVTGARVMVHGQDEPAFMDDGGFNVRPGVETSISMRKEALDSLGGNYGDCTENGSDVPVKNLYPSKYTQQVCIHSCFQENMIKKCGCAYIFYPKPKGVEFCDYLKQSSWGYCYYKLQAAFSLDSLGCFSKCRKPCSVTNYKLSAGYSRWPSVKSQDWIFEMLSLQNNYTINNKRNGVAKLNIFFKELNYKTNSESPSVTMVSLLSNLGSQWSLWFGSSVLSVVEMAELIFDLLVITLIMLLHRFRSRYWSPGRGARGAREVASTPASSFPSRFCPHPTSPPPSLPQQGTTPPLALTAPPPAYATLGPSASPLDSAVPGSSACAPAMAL
Assay: Inhibition of ENaC in mouse M1 assessed as effect on trans epithelial electrical resistance by measuring short circuit currents by voltage-clamp based Ussing chamber assay

IC50 | Compound
70 nM | COc1ccc(CCC[N@@+]2(C)CCC[C@H](NC(=O)c3nc(Cl)c(N)nc3N)C2)cc1
20 nM | COc1ccc(CCC[N+]2(CCCc3ccc(C(=O)NCCCN(C)C)cc3)CCCC(NC(=O)c3nc(Cl)c(N)nc3N)C2)cc1 (stereo unspecified)
6 nM | COc1ccc(CCC[N+]2(CCCc3ccccc3)CCCC(NC(=O)c3nc(Cl)c(N)nc3N)C2)cc1 (stereo unspecified)
9 nM | Nc1nc(N)c(C(=O)N[C@H]2CCC[N+](CCCc3ccc(OCC(=O)NCCn4ccnc4)cc3)(CCCc3ccc(OCC(=O)NCCn4ccnc4)cc3)C2)nc1Cl
13 nM | Nc1nc(N)c(C(=O)N[C@H]2CCC[N+](CCCc3ccc(OCC(=O)NCCCO)cc3)(CCCc3ccc(OCC(=O)NCCCO)cc3)C2)nc1Cl
6 nM | Nc1nc(N)c(C(=O)N[C@H]2CCC[N+](CCCc3ccc(OCC(=O)NCCc4ccccn4)cc3)(CCCc3ccc(OCC(=O)NCCc4ccccn4)cc3)C2)nc1Cl
